Structures can show the parent of a compound that is named as a salt.
Assay: in vitro
Conditions: rat, gh3-tre-luc cells

SMILES | CC50 at 24 h (AC50 (uM) modified / 1000) | further results
C=C1[C@H]2CC[C@@H]3[C@H]2C(C)(C)CCC[C@]13C [Longifolene] | > 90 µM | –
O=C(O)c1nn(Cc2ccc(Cl)cc2Cl)c2ccccc12 [Lonidamine] | > 90 µM | –
CN(C)C(=O)C(CCN1CCC(O)(c2ccc(Cl)cc2)CC1)(c1ccccc1)c1ccccc1 [Loperamide] | 6.34 µM | –
Cc1cccc(C)c1OCC(=O)N[C@@H](Cc1ccccc1)[C@@H](O)C[C@H](Cc1ccccc1)NC(=O)[C@H](C(C)C)N1CCCNC1=O [Lopinavir] | 24.6 µM | –
N[C@@H](C(=O)N[C@@H]1C(=O)N2C(C(=O)O)=C(Cl)CC[C@H]12)c1ccccc1 [Loracarbef monohydrate] | > 50 µM | –
O=C1Nc2ccc(Cl)cc2C(c2ccccc2Cl)=NC1O (stereo not shown) [Lorazepam] | > 50 µM | –
CCCC(C)(COC(N)=O)COC(=O)NC1CC1 (stereo not shown) [Lorbamate] | – | CC50 at 24 h (AC50 (uM) modified / 1000, Tox21_110001=Tox21_111921, viability, 1 nM T3 present, 24 h): > 50 µM
C[C@H]1CNCCc2ccc(Cl)cc21 [Lorcaserin] | – | CC50 at 24 h (AC50 (uM) modified / 1000, Tox21_110001=Tox21_113018, viability, 1 nM T3 present, 24 h): > 50 µM
Cl/C(=C\n1cncn1)c1ccc(Cl)cc1Cl [Loreclezole hydrochloride] | > 50 µM | –
O=S(=O)(O)c1cc(I)c(O)c2ncccc12 [Loretin] | > 50 µM | –
CCCCCN(CCCCC)C(=O)C(CCC(=O)O)NC(=O)c1ccc(Cl)c(Cl)c1 (stereo not shown) [Lorglumide sodium] | > 50 µM | –
CN1C(C(=O)Nc2ccccn2)=C(O)c2sc(Cl)cc2S1(=O)=O [Lornoxicam] | > 50 µM | –
CCCCc1nc(Cl)c(CO)n1Cc1ccc(-c2ccccc2-c2nn[nH]n2)cc1 [Losartan] | > 50 µM | –
CCOC(=O)O[C@]1(C(=O)OCCl)CC[C@H]2[C@@H]3CCC4=CC(=O)C=C[C@]4(C)[C@H]3[C@@H](O)C[C@@]21C [Loteprednol etabonate] | > 50 µM | –
CN1CCN(C2=Nc3ccccc3Oc3ccc(Cl)cc32)CC1 [Loxapine succinate] | 7.25 µM | –
CC(C(=O)O)c1ccc(CC2CCCC2=O)cc1 (stereo not shown) [Loxoprofen] | > 50 µM | –
C=CCn1c(=O)n([C@@H]2O[C@H](CO)[C@@H](O)[C@H]2O)c2nc(N)[nH]c(=O)c21 [Loxoribine] | > 50 µM | –
CCNC(=O)NCc1cccc(Cl)c1 [Lozilurea] | > 50 µM | –
CCCCC(F)(F)[C@@]1(O)CC[C@H]2[C@@H](CC(=O)[C@@H]2CCCCCCC(=O)O)O1 [Lubiprostone] | > 50 µM | –

SMILES | CC50 at 24 h (AC50 (uM) modified / 1000) | further results
O=C(NC(=O)c1c(F)cccc1F)Nc1cc(Cl)c(OC(F)(F)C(F)C(F)(F)F)cc1Cl (stereo not shown) [Lufenuron] | > 90 µM | –
CCCCN(CCCC)CC(O)c1cc(Cl)cc2c1-c1ccc(Cl)cc1/C2=C/c1ccc(Cl)cc1 (stereo not shown) [Lumefantrine] | 38.5 µM | –
Nc1cccc2c(=O)[nH][nH]c(=O)c12 [Luminol] | > 90 µM | –
Cc1ccc(Nc2c(F)cccc2Cl)c(CC(=O)O)c1 [Lumiracoxib] | > 50 µM | –
CC1=C[C@H](O)CC(C)(C)[C@H]1/C=C/C(C)=C/C=C/C(C)=C/C=C/C=C(C)/C=C/C=C(C)/C=C/C1=C(C)C[C@@H](O)CC1(C)C [Lutein] | 28.4 µM | –
CC(C)=CCC/C(C)=C/C=C/C(C)=C/C=C/C(C)=C/C=C/C=C(C)/C=C/C=C(C)/C=C/C=C(\C)CCC=C(C)C [Lycopene] | > 50 µM | –
CN(C)[C@@H]1C(=O)C(C(=O)NCNCCCC[C@H](N)C(=O)O)=C(O)[C@@]2(O)C(=O)C3=C(O)c4c(O)cccc4[C@@](C)(O)[C@H]3C[C@@H]12 [Lymecycline] | > 20 µM | –
NCCCC[C@H](NC(=O)[C@@H]1CCCN1C(=O)[C@@H]1CSSC[C@H](N)C(=O)N[C@@H](Cc2ccc(O)cc2)C(=O)N[C@@H](Cc2ccccc2)C(=O)N[C@@H](CCC(N)=O)C(=O)N[C@@H](CC(N)=O)C(=O)N1)C(=O)NCC(N)=O [Lypressin] | > 50 µM | –
CCN(CC)C(=O)[C@@H]1C=C2c3cccc4[nH]cc(c34)C[C@H]2N(C)C1 [Lysergide] | – | CC50 at 24 h (AC50 (uM) modified / 1000, Tox21_110001=Tox21_112872, viability, 1 nM T3 present, 24 h): > 200 µM; CC50 at 24 h (AC50 (uM) modified / 1000, Tox21_110001=Tox21_113508, viability, 1 nM T3 present, 24 h): > 50 µM
NCCCC[C@H](N)C(=O)O [Lysine] | > 50 µM | –
CCCCC(CC)COC(=O)COc1ccc(Cl)cc1C (stereo not shown) [MCPA-2-ethylhexyl] | > 90 µM | –
Cc1cc(Cl)ccc1OCC(=O)O [MCPA] | > 90 µM | –
Cc1cc(Cl)ccc1OCCCC(=O)O [MCPB] | – | CC50 at 24 h (AC50 (uM) modified / 1000, Tox21_110001=Tox21_201319, viability, 1 nM T3 present, 24 h): > 100 µM; CC50 at 24 h (AC50 (uM) modified / 1000, Tox21_110001=Tox21_303338, viability, 1 nM T3 present, 24 h): > 90 µM
CN1[C@@H]2CC[C@H]1C[C@@H](OC(=O)c1cc(Cl)cc(Cl)c1)C2 [MDL 72222] | 35.2 µM | –
CCCCC(CC)COC(=O)c1ccccc1C(=O)O (stereo not shown) [MEHP] | > 90 µM | –
NC(=O)c1nc(-c2cccc(-c3cc(F)ccc3OCC(F)(F)C(F)(F)F)c2)n[nH]1 [MK-274] | 53.5 µM | –
CCCCc1ccc2c(n1)[C@@H](c1ccc(OC)cc1C[C@H](C)C(=O)O)[C@H](C(=O)O)[C@H]2c1ccc2c(c1)OCO2 [MK-547] | > 90 µM | –
CN(C)C(=O)CCSC(SCCC(=O)O)c1cccc(/C=C/c2ccc3ccc(Cl)cc3n2)c1 (stereo not shown) [MK-571 sodium] | 28.9 µM | –
CCn1nc(Cc2ccccc2)cc1C1CCN(C[C@H]2C[C@H](N(C)[C@@H](C(=O)O)C(C)C)C[C@@H]2c2cccc(F)c2)CC1 [MK-578] | 66.4 µM | –

Reference: paper PMC6792352, “Limited Chemical Structural Diversity Found to Modulate Thyroid Hormone Receptor in the Tox21 Chemical Library” (Environmental Health Perspectives, 2019)
